Measurements as given in patent US20260354377A1, “INSECTICIDAL AND ARACHNIDICIDAL COMPOSITIONS AND USES THEREOF” (priority 2023, published 2026).
“Also recorded” adds a separate entry of the source.

How the values were obtained:
Blata orientalis [1] = assay: Evaluation of insecticidal effect of individual components (Example 9); format: in vivo, Oriental cockroach; settings: 0.3 grams on back, pairs; for Alive: weight %: caprylic acid 0.8, Miglyol 0.2, Tween 80 0.015, lecithin 0.15, DPPG 0.12, xanthan gum 0.0075; for Dead: caprylic acid 0.8, Emulsion Table 1 5.0 weight %
Method: In order to evaluate the effect of individual components, the higher concentration of each was used, these are marked with an asterisk as presented in Table 9
The cockroach Blata orientalis was used as described in Example 1 part 3 because of its size, ease of application and predictable response to the formulation.
Pairs of insects were treated by applying 0.3 grams (ml) of test items from Table 9 above directly onto their backs following which individual insects were placed in separate plastic containers and observed over a period of one hour and overnight. A 5% aqueous dispersion of the emulsion from Table 1 and sterile distilled water were used as controls.

[2] = Stability of aqueous dispersions of components; format: physicochemical; settings: laboratory homogeniser dispersion in water
[3] = Solubility and solution properties; settings: for solubility: water or oil
Method: An aqueous dispersion of de-lipidised lecithin and DPPG is prepared by blending the component with water at the desired concentration and allowing at least one hour to fully hydrate.
Both of these are water soluble and may be added to the water phase of either the emulsion concentrate or the diluted suspension.

Blata orientalis [4] = assay: Efficacy of NAC and PCA supplemented Reactive Emulsions, spray (Example 13); format: in vivo, Oriental Cockroach; settings: 50 mM citrate buffer, NAC or PCA 0.1%, emulsion 5% where present; for Alive / Immobile / Moribund: ten insects
Method: In one embodiment of the present invention, Reactive Emulsions of this invention are acidic and are kept at or below pH 5.5 to retain reactivity. For this reason 0.1% W/W solutions of NAC and PCA were prepared in 50 mM sodium citrate buffer at pH 5.0 and reduced fatty acid Reactive Emulsion concentrate (Table 15) was added to these at 5% by weight.
NAC and PCA controls were prepared by dissolving 0.1% of each in 50 mM sodium citrate buffer • reduced fatty acid Reactive Emulsions were used to illustrate the additive effect of NAC and PCA because the rate of activity of higher concentration fatty acid Emulsions would swamp the effect.
A 5% by weight suspension of Emulsion concentrate was prepared in 50 mM sodium citrate buffer without either NAC or PCA was prepared as a negative control and 50 mM buffer on its own was used as a blank.
(§1) The Oriental Cockroach Blata Orientalis was used to evaluate the efficacy of the NAC and PCA supplemented reactive emulsion and the experimental design was the same as in Example 1. Individual insects were lifted with tweezers and sprayed with either NAC or PCA supplemented test formulations, negative control or buffer blank, ten insects in each case, and evaluated after 1 hour and 10 hours.

lice = settings: approved by FDA as a 1% solution; cited from earlier work
Blata orientalis [5] = assay: Efficacy of Permethrin delivered in reduced fatty acid Reactive Emulsion, spray (Example 12); format: in vivo, Oriental Cockroach; settings: emulsion concentrates diluted to 5% in water, where present, 0.1%
Method: Permethrin was added to the oil phase at 2 grams in 20 of total oil (oil phase) which is 2% of the concentrated reactive emulsion. For use in the test the concentrate was diluted to 5% in water, that is 1% oil phase containing 0.1% Permethrin (10% of recommended dose).
A Reactive Emulsion control was prepared using the formulation in Table 13 by replacing Permethrin with Miglyol at 15% and free fatty acid at 5%.
as §1, with “non-reactive” for “NAC and PCA supplemented reactive”, “non-reactive” for “NAC or PCA supplemented”, “formulation, positive” for “formulations, negative”, “water” for “buffer”

hematophagous insects = settings: cited from earlier work

CCCCCCCC(=O)O [Caprylic acid]
Alive (Blata orientalis [1]; 1 hour post treatment): 2 | Dead (Blata orientalis [1]; 18 hours post treatment): 1 | Dead (Blata orientalis [1]; 18 hours post treatment, listed as caprylic acid): one | Alive (Blata orientalis [1]; 18 hours post treatment): 1 | stability of aqueous dispersion [2]: co-acervate and settle out within minutes of being formed

CCCCCCCCCCCCCCCC(=O)OCC(COP(=O)(O)OCC(O)CO)OC(=O)CCCCCCCCCCCCCCC (centres unmarked) [DPPG, di-palmitoyl phosphatidyl glycerol]
Alive (Blata orientalis [1]; 1 hour post treatment): 2 | Alive (Blata orientalis [1]; 18 hours post treatment): 2 | stability of aqueous dispersion [2]: tendency to settle out

CC(=O)N[C@@H](CS)C(=O)O [N-acetyl Cysteine, N-Acetyl Cysteine]
pH in solution ([3]; in solution): slightly basic pH in solution | solubility [3]: water soluble | Mortality / efficacy (Blata orientalis [4]; 1 hour, 60 min): 0% | Mortality / efficacy (Blata orientalis [4]; 1 hour, listed as NAC): no effect | Alive (Blata orientalis [4]; 1 hour): 10 | Immobile (Blata orientalis [4]; 1 hour): 0 | Moribund (Blata orientalis [4]; 1 hour): 0 | Mortality / efficacy (Blata orientalis [4]; 10 hours, 600 min): 10% | Mortality / efficacy (Blata orientalis [4]; 10 hours, listed as NAC, 600 min): 10% | Alive (Blata orientalis [4]; 10 hours): 9 | Immobile (Blata orientalis [4]; 10 hours): 1 | Moribund (Blata orientalis [4]; 10 hours): 0

CC1(C)C(C=C(Cl)Cl)C1C(=O)OCc1cccc(Oc2ccccc2)c1 (centres unmarked) [Permethrin]
solubility [3]: sparingly soluble in water; also recorded: basically oil soluble | effectiveness against lice (lice): effective against adult lice but not their eggs | Mortality (Blata orientalis [5]; 1 hour): 0% | Alive (Blata orientalis [5]; 1 hour, ten insects): 10 | Mortality / efficacy (Blata orientalis [5]; 10 hours, 600 min): 30% | Alive (Blata orientalis [5]; 10 hours, ten insects): 7 | Immobile (Blata orientalis [5]; 10 hours, ten insects): 0 | Moribund (Blata orientalis [5]; 10 hours, ten insects): 3

CCC(C)OC(=O)N1CCCCC1CCO (centres unmarked) [Picaridin]
repellent effect (hematophagous insects): broad spectrum effects combined with low toxicity

O=C1CCC(C(=O)O)N1 (centres unmarked) [Pyrrolidone Carboxylic Acid, 2-Pyrrolidone-5-Carboxylic Acid]
Mortality / efficacy (Blata orientalis [4]; 1 hour): 0% | Alive (Blata orientalis [4]; 1 hour): 10 | Immobile (Blata orientalis [4]; 1 hour): 0 | Moribund (Blata orientalis [4]; 1 hour): 0 | Mortality / efficacy (Blata orientalis [4]; 10 hours, 600 min): 20% | Mortality / efficacy (Blata orientalis [4]; 10 hours, listed as PCA, 600 min): 20% | Alive (Blata orientalis [4]; 10 hours): 8 | Immobile (Blata orientalis [4]; 10 hours): 0 | Moribund (Blata orientalis [4]; 10 hours): 2
